# The NIST ThermoML archive (doi:10.1016/j.jct.2017.12.012)
# ± gives the expanded uncertainty stated by the source.
# Legend:
# [1] = 101.33 kPa, Liquid, Vibrating tube method
# [2] = activity coefficient (dimensionless); of the first substance listed, at infinite dilution; xn = mol fraction of the nth substance listed; conditions: 101.33 kPa, Liquid, Chromatography, x1 = 0
Compound,mass density ([1]; 313.15 K) [kg/m3],mass density ([1]; 323.15 K) [kg/m3],mass density ([1]; 333.15 K) [kg/m3],mass density ([1]; 343.15 K) [kg/m3],mass density ([1]; 353.15 K) [kg/m3],activity coefficient ([2]; 313.15 K),activity coefficient ([2]; 323.15 K),activity coefficient ([2]; 333.15 K),activity coefficient ([2]; 343.15 K),activity coefficient ([2]; 353.15 K)
CCCCCCCCn1cc[n+](C)c1C.O=S(=O)([N-]S(=O)(=O)C(F)(F)F)C(F)(F)F,1296.1 ± 2.4,1287.4 ± 2.4,1278.6 ± 2.4,1269.1 ± 2.4,1258.2 ± 2.4,–,–,–,–,–
"Cc1ccccc1C [1,2-dimethylbenzene] + CCCCCCCCn1cc[n+](C)c1C.O=S(=O)([N-]S(=O)(=O)C(F)(F)F)C(F)(F)F",–,–,–,–,–,1.15 ± 0.12,1.08 ± 0.11,1.02 ± 0.1,0.96 ± 0.1,0.93 ± 0.09
"Cc1cccc(C)c1 [1,3-dimethylbenzene] + CCCCCCCCn1cc[n+](C)c1C.O=S(=O)([N-]S(=O)(=O)C(F)(F)F)C(F)(F)F",–,–,–,–,–,1.18 ± 0.12,1.14 ± 0.12,1.1 ± 0.11,1.04 ± 0.11,1.01 ± 0.1
"Cc1ccc(C)cc1 [1,4-dimethylbenzene] + CCCCCCCCn1cc[n+](C)c1C.O=S(=O)([N-]S(=O)(=O)C(F)(F)F)C(F)(F)F",–,–,–,–,–,1.17 ± 0.12,1.11 ± 0.11,1.06 ± 0.11,1 ± 0.1,0.95 ± 0.1
"C1COCCO1 [1,4-dioxane] + CCCCCCCCn1cc[n+](C)c1C.O=S(=O)([N-]S(=O)(=O)C(F)(F)F)C(F)(F)F",–,–,–,–,–,0.64 ± 0.07,0.56 ± 0.06,0.51 ± 0.06,0.47 ± 0.05,0.42 ± 0.05
CC(C)CO [2-methyl-1-propanol] + CCCCCCCCn1cc[n+](C)c1C.O=S(=O)([N-]S(=O)(=O)C(F)(F)F)C(F)(F)F,–,–,–,–,–,2.21 ± 0.23,1.88 ± 0.2,1.6 ± 0.17,1.39 ± 0.14,1.21 ± 0.12
CC(C)CCO [3-methylbutan-1-ol] + CCCCCCCCn1cc[n+](C)c1C.O=S(=O)([N-]S(=O)(=O)C(F)(F)F)C(F)(F)F,–,–,–,–,–,2.46 ± 0.26,2.11 ± 0.22,1.79 ± 0.19,1.55 ± 0.16,1.32 ± 0.14
CC(C)=O [acetone] + CCCCCCCCn1cc[n+](C)c1C.O=S(=O)([N-]S(=O)(=O)C(F)(F)F)C(F)(F)F,–,–,–,–,–,0.46 ± 0.05,0.41 ± 0.05,0.37 ± 0.04,0.34 ± 0.04,0.31 ± 0.04
CC#N [acetonitrile] + CCCCCCCCn1cc[n+](C)c1C.O=S(=O)([N-]S(=O)(=O)C(F)(F)F)C(F)(F)F,–,–,–,–,–,0.51 ± 0.06,0.45 ± 0.05,0.4 ± 0.05,0.37 ± 0.04,0.34 ± 0.04
c1ccccc1 [benzene] + CCCCCCCCn1cc[n+](C)c1C.O=S(=O)([N-]S(=O)(=O)C(F)(F)F)C(F)(F)F,–,–,–,–,–,0.81 ± 0.08,0.74 ± 0.08,0.68 ± 0.07,0.63 ± 0.07,0.59 ± 0.06
CCCCO [butan-1-ol] + CCCCCCCCn1cc[n+](C)c1C.O=S(=O)([N-]S(=O)(=O)C(F)(F)F)C(F)(F)F,–,–,–,–,–,2.31 ± 0.24,1.96 ± 0.21,1.7 ± 0.18,1.46 ± 0.15,1.27 ± 0.13
CCC(C)O (stereo not given) [butan-2-ol] + CCCCCCCCn1cc[n+](C)c1C.O=S(=O)([N-]S(=O)(=O)C(F)(F)F)C(F)(F)F,–,–,–,–,–,2.03 ± 0.21,1.74 ± 0.18,1.5 ± 0.16,1.29 ± 0.13,1.11 ± 0.11
C1CCCCC1 [cyclohexane] + CCCCCCCCn1cc[n+](C)c1C.O=S(=O)([N-]S(=O)(=O)C(F)(F)F)C(F)(F)F,–,–,–,–,–,4.76 ± 0.5,4.16 ± 0.44,3.75 ± 0.39,3.37 ± 0.35,3.12 ± 0.33
C1=CCCCC1 [cyclohexene] + CCCCCCCCn1cc[n+](C)c1C.O=S(=O)([N-]S(=O)(=O)C(F)(F)F)C(F)(F)F,–,–,–,–,–,3.04 ± 0.32,2.77 ± 0.29,2.5 ± 0.26,2.28 ± 0.24,2.1 ± 0.22
CCCCCCCCCC [decane] + CCCCCCCCn1cc[n+](C)c1C.O=S(=O)([N-]S(=O)(=O)C(F)(F)F)C(F)(F)F,–,–,–,–,–,20.8 ± 2.2,16.4 ± 1.7,13.5 ± 1.4,11.2 ± 1.2,9.33 ± 0.98
ClCCl [dichloromethane] + CCCCCCCCn1cc[n+](C)c1C.O=S(=O)([N-]S(=O)(=O)C(F)(F)F)C(F)(F)F,–,–,–,–,–,0.82 ± 0.08,0.75 ± 0.08,0.68 ± 0.07,0.64 ± 0.07,0.58 ± 0.06
CCO [ethanol] + CCCCCCCCn1cc[n+](C)c1C.O=S(=O)([N-]S(=O)(=O)C(F)(F)F)C(F)(F)F,–,–,–,–,–,1.7 ± 0.18,1.49 ± 0.15,1.31 ± 0.13,1.15 ± 0.12,1.01 ± 0.1
